Results from paper PMC11456426, “Study of transport, tissue distribution, depletion, and hepatotoxicity of Cyadox, a quinoxaline-1,4-dioxide derivative” (Frontiers in Pharmacology, 2024).
Read-outs that look alike come from different tables or passages of the source.

Legend:
[1] = target: T1, bovine serum albumin (BSA) (Bos taurus, UniProt P02769); assay: Fluorescence quenching of BSA by CYA (Stern-Volmer and binding constants); details: for Kd: read-out: KA (binding constant) (converted)
Method: The concentration of CYA was varied at 0, 0.33, 0.66, 1.0, 1.33, 1.66, and 2.0 × 10^−6 M.
Steady-state fluorescence spectra were performed on a FP-6500 spectrofluorimeter (Jasco, Japan) equipped with a thermostatic bath and 1.0 cm quartz cell. Fluorescence emission spectra were recorded at 300, 305, and 310 K in the range of 295 nm–500 nm. The excitation and emission slits with a band pass of 5 nm were used for all the measurements.
Synchronous fluorescence spectra were performed when the D-values between the excitation and emission wavelengths were set at 15 and 60 nm. Fluorescence excitation spectra were recorded at 302, 307, and 312 K in the range of 200–400 nm.
The Stern–Volmer equation below was used to analyze the fluorescence quenching data and confirm the quenching mechanism ([Zhou et al., 2022]): F0/F=1+KSVQ=1+kqτ0Q , where F 0 and F are the fluorescence intensities before and after the addition of the quencher CYA, K sv is the Stern–Volmer quenching constant, k q is the bimolecular quenching constant, τ 0 is the lifetime of the fluorophore in the absence of the quencher (10^−8 s), and [Q] is the concentration of the quencher. The Stern–Volmer quenching constant K sv is inversely correlated with temperature, and the k q values are much greater than the maximum scattering collisional quenching constant (2.0 × 10^10 M^−1S^−1).
For static quenching, the equilibrium between the free and bound molecules is given by the following equation: logF0−F/F=logKA+nlogQ , where K A is the binding constant, and n is the number of binding sites. […] Moreover, the values of n were approximately equal to 1, which indicated the presence of one binding site in the BSA–CYA system.

[2] = target: T1, bovine serum albumin (BSA); assay: Circular dichroism spectra of the BSA-CYA system; type: binding; details: 1.0 × 10^−6 M BSA with 1.0 × 10^−6 M CYA, pH 7.4, 312 K
Method: For CD studies, the final concentration of BSA and CYA was 1.0 × 10^−6 M. The CD spectra were recorded at 312 K with a Jasco-810 spectropolarimeter (Jasco, Japan) using a 0.1 cm quartz cuvette. Three scans were accumulated at a scan speed of 200 nm min^−1, with data being collected every 0.2 nm from 200 nm to 260 nm at 312 K.

liver = assay: Hepatotoxicity by liver transcriptomics; type: in vivo, KM mice; details: mice, CYA 1,000 mg/kg bw, 7 days
Method: For the hepatotoxicity study, a group of four mice (2 male and 2 female, KM) were administered CYA at a dose of 1,000 mg/kg bw. Another group of four mice received saline as a control. After 7 days, the mice were anaesthetised, sacrificed and their livers collected. A total of eight samples from 2 groups of the obtained livers were sent to Majorbio Technology Co., Ltd. (Shanghai, China) for testing, divided into the blank group (control; A1, A2, A3, A4) and the drug group administered CYA (drug; B1, B2, B3, B4), with 4 samples in each group. Sequencing was performed using the Meiji Medical Reference Transcriptome Sequencing Platform to complete the transcriptome analysis of eight samples. The raw reads were deposited into the NCBI Sequence Read Archive (SRA) database (BioProject: Number: PRJNA1082257).
Differently expressed genes are genes with significant differences obtained by computing the expression of all genes between different groups after transcriptome sequencing. On the Meggie Bio platform, differential gene analysis was carried out between groups by quantifying the expression results to obtain the genes that were differentially expressed between the two groups, and the differential analysis software was: DESeq2, the screening threshold was: |log2FC| ≥0 and padjust< 0.05, and the specific results are shown in Figure 5B below.

testis = system: testis; set-up: method as in Ihsan et al., 2011; details: ref Ihsan et al., 2011, cited from earlier work

T1 sequence (P02769 25-607): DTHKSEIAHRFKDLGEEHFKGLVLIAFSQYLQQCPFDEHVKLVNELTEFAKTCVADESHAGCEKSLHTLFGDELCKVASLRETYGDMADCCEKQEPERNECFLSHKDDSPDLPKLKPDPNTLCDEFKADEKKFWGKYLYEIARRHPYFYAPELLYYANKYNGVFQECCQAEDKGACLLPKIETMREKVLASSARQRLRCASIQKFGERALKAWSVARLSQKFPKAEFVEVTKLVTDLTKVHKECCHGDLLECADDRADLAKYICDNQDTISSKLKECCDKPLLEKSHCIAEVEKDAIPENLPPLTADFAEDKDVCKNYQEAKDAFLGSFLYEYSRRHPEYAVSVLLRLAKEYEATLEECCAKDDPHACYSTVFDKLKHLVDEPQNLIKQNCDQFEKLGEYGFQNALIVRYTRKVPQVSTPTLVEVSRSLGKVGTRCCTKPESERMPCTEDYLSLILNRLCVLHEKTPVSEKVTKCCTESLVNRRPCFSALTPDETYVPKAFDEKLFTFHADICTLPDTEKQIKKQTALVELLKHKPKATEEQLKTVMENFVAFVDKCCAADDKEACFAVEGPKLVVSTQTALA

For `N#CCC(=O)NN=Cc1c[n+]([O-])c2ccccc2[n+]1[O-]` [CYA, (2-formylquinoxaline)-N1,N4-dioxide cyanoacetylhydrazone], which “Ksv (Stern-Volmer quenching constant)” value ([1]; T 302 K, pH 7.4) is on record?
The value was 86500 M⁻¹.

What about the “kq (bimolecular quenching constant)” value ([1]; T 302 K, pH 7.4) of the same compound?
The value was 8.65 × 10^12 M^−1S^−1.

And the “n (number of binding sites)” value ([1]; T 302 K, pH 7.4)?
The value was 1.139.

What about the Kd ([1]; T 302 K, pH 7.4) of the same compound?
Its Kd is 5.71 µM.

And the “Ksv (Stern-Volmer quenching constant)” value ([1]; T 307 K, pH 7.4)?
Its value is 40700 M⁻¹.

And the “kq (bimolecular quenching constant)” value ([1]; T 307 K, pH 7.4)?
Its value is 4.07 × 10^12 M^−1S^−1.

And the “n (number of binding sites)” value ([1]; T 307 K, pH 7.4)?
Its value is 0.915.

And the Kd ([1]; T 307 K, pH 7.4)?
The Kd was 103 µM.

What about the “Ksv (Stern-Volmer quenching constant)” value ([1]; T 312 K, pH 7.4) of the same compound?
The value was 33600 M⁻¹.

What about the “kq (bimolecular quenching constant)” value ([1]; T 312 K, pH 7.4) of the same compound?
Its value is 3.36 × 10^12 M^−1S^−1.

What about the “n (number of binding sites)” value ([1]; T 312 K, pH 7.4) of the same compound?
The value was 0.931.

And the Kd ([1]; T 312 K, pH 7.4)?
The Kd was 178 µM.

And the “n (number of binding sites)” value ([1]; all temperatures)?
Its value is ~1.

What about the “BSA secondary structure, turns” value ([2]; BSA alone 19%) of the same compound?
Its value is 26%.

What about the “BSA secondary structure, α-helix” value ([2]; BSA alone 20%) of the same compound?
Its value is 21%.

And the “BSA secondary structure, unordered” value ([2]; BSA alone 26%)?
Its value is 25%.

And the “BSA secondary structure, β-strand” value ([2]; BSA alone 35%)?
The value was 28%.

And the “cell-process differential genes associated with apoptosis” value (liver)?
The value was “none”.

And the “direction of change of lipid metabolism / steroid biosynthesis related genes” value (liver)?
The value was “predominantly downregulated”.

What about the “expression of StAR, P450scc, and 17β-HSD (liver transcriptomic data)” value (liver) of the same compound?
The value was “no significant decrease”.

What about the “genes expressed uniquely after administration of the drug” value (liver) of the same compound?
Its value is 249.

What about the “genes of lipid metabolism-related pathways with significant changes” value (liver) of the same compound?
The value was 25.

What about the “hepatotoxicity (transcriptomic assessment)” value (liver) of the same compound?
Its value is “low hepatotoxicity”.

What about the “significantly different genes associated with cell processes” value (liver) of the same compound?
Its value is 23.

And the “genes significantly downregulated in liver, drug group vs blank group” value (liver; DESeq2, padjust< 0.05)?
Its value is 176.

For `CC(=O)c1c(C)[n+]([O-])c2ccccc2[n+]1[O-]` [MEQ, Mequindox], which “mRNA expression levels of AR and 3β-HSD” value (testis; 110 mg/kg vs control group) is on record?
The value was “significantly increased”.

What about the “mRNA expression levels of StAR, P450scc, and 17β-HSD in the testis” value (testis; 275 mg/kg vs control group) of the same compound?
Its value is “significantly reduced”.
